Assay results from patent US20230183193A1, “4-DIFLUOROMETHYL BENZOYL AMIDES WITH HERBICIDAL ACTION” (BAYER CROPSCIENCE AKTIENGESELLSCHAFT, priority 2017, published 2023).

What was measured:
Abutilon theophrasti [1] = assay: Post-emergence herbicidal action, ABUTH; type: in vivo; details: 80 g/ha, Table D
In short: (§1)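 Herbicidal effect is rated visually as percent versus untreated plants (100% = dead, 0% = like control) about 3 weeks after spraying. Plants were sown in sandy loam in the greenhouse and sprayed on green parts at the one-leaf stage, 2 to 3 weeks post-sowing.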

Matricaria inodora = assay: Pre-emergence herbicidal action, MATIN; type: in vivo; details: for Herbicidal efficacy against MATIN: Table K; for herbicidal activity MATIN: scored visually after 3 weeks vs untreated controls
In short: (§2)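 Percent herbicidal activity rated by eye 3 weeks after pre-emergence soil-surface application, compared with untreated pots. Seeds sat under sandy loam; sprays carried 0.2% wetting agent.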

Stellaria media [2] = assay: Post-emergence herbicidal action, STEME; type: in vivo; details: for Herbicidal activity STEME: Table D
In short: as §1

Viola tricolor [3] = assay: Post-emergence herbicidal action, VIOTR; type: in vivo; details: for herbicidal activity VIOTR: Table D
In short: as §1

ECHCG [4] = assay: Post-emergence herbicidal action, ECHCG; type: in vivo; details: 80 g/ha, Table C
In short: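 Weed and crop plants grown in sandy loam in the greenhouse, treated at the one-leaf stage 2–3 weeks after sowing. Damage scored visually after about 3 weeks vs untreated controls (0% = control, 100% = dead).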

Abutilon theophrasti [5] = assay: Pre-emergence herbicidal action, ABUTH; type: in vivo; details: for Herbicidal efficacy against ABUTH: Table K; for herbicidal activity ABUTH: scored visually after 3 weeks vs untreated controls
In short: as §2

Stellaria media [6] = assay: Pre-emergence herbicidal action, STEME; type: in vivo; details: dosage 320 g/ha, scored visually after 3 weeks vs untreated controls
In short: as §2

Cyperus serotinus = assay: Pre-emergence herbicidal action, CYPES; type: in vivo; details: for herbicidal activity CYPES: dosage 320 g/ha, scored visually after 3 weeks vs untreated controls
In short: as §2

Setaria viridis [7] = assay: Post-emergence herbicidal action, SETVI; type: in vivo; details: for herbicidal activity SETVI: Table C
In short: as §1

Pharbitis purpureum = assay: Post-emergence herbicidal action, PHBPU; type: in vivo; details: 80 g/ha, Table D
In short: as §1

Polygonum convolvulus = assay: Pre-emergence herbicidal action, POLCO; type: in vivo; details: Table K
Excerpt: 1. Pre-Emergence Herbicidal Action Against Harmful Plants Seeds of monocotyledonous and dicotyledonous weed plants and crop plants are laid out in sandy loam soil in wood-fiber pots and covered with soil. The compounds of the invention, formulated in the form of wettable powders (WP) or as emulsion concentrates (EC), are then applied to the surface of the covering soil in the form of an aqueous suspension or emulsion at a water application rate equating to […], with addition of 0.2% wetting agent. After the treatment, the pots are placed in a greenhouse and kept under good growth conditions for the trial plants. The damage to the test plants is scored visually after a test period of 3 weeks by comparison with untreated controls (herbicidal activity in percent (%): 100% activity=the plants have died, 0% activity=like control plants).
For comparison, the herbicidal activity of numerous compounds according to the invention was tested with the structurally closest compounds known from the documents WO 2011/035874, WO 2012/028579 and WO 2012/126932, by the pre- and post-emergence method.

Viola tricolor [8] = assay: Pre-emergence herbicidal action, VIOTR; type: in vivo; details: for Herbicidal efficacy against VIOTR: Table K; for herbicidal activity VIOTR: scored visually after 3 weeks vs untreated controls
In short: as §2

Amaranthus retroflexus [9] = assay: Pre-emergence herbicidal action, AMARE; type: in vivo; details: dosage 320 g/ha, scored visually after 3 weeks vs untreated controls
In short: as §2

Avena fatua [10] = assay: Post-emergence herbicidal action, AVEFA; type: in vivo; details: for herbicidal activity AVEFA: Table C
In short: as §1

Avena fatua [11] = assay: Pre-emergence herbicidal action, AVEFA; type: in vivo; details: for herbicidal activity AVEFA: dosage 320 g/ha, scored visually after 3 weeks vs untreated controls
In short: as §2

Setaria viridis [12] = assay: Pre-emergence herbicidal action, SETVI; type: in vivo; details: for herbicidal activity SETVI: dosage 320 g/ha, scored visually after 3 weeks vs untreated controls
In short: as §2

ECHCG [13] = assay: Pre-emergence herbicidal action, ECHCG; type: in vivo, Echinochloa crus-galli
Alopecurus myosuroides [14] = assay: Post-emergence herbicidal action, ALOMY; type: in vivo
In short: as §1

Amaranthus retroflexus [15] = assay: Post-emergence herbicidal action, AMARE; type: in vivo; details: 80 g/ha, Table D
In short: as §1

Alopecurus myosuroides [16] = assay: Pre-emergence herbicidal action, ALOMY; type: in vivo; details: for herbicidal activity ALOMY: dosage 320 g/ha, scored visually after 3 weeks vs untreated controls
In short: as §2

Cc1c(C(=O)Nc2ncnn2C)ccc(C(F)F)c1S(C)(=O)=O [Example 4-3]
herbicidal activity ABUTH (Abutilon theophrasti [1]): 100%
Herbicidal efficacy against MATIN (Matricaria inodora; dosage 80 g/ha): 100
Herbicidal efficacy against MATIN (Matricaria inodora; dosage 320 g/ha): 100
herbicidal activity MATIN (Matricaria inodora; dosage 320 g/ha): 100%
Herbicidal efficacy against STEME (Stellaria media [2]; 20 g/ha): 60
Herbicidal activity STEME (Stellaria media [2]; 80 g/ha): 90%
Herbicidal efficacy against VIOTR (Viola tricolor [3]; 20 g/ha): 100
herbicidal activity VIOTR (Viola tricolor [3]; 80 g/ha): 100%
Herbicidal activity ECHCG (ECHCG [4]): 100%
Herbicidal efficacy against ABUTH (Abutilon theophrasti [5]; dosage 80 g/ha): 100
Herbicidal efficacy against ABUTH (Abutilon theophrasti [5]; dosage 320 g/ha): 100
herbicidal activity ABUTH (Abutilon theophrasti [5]; dosage 320 g/ha): 100%
Herbicidal activity STEME (Stellaria media [6]): 100%
Herbicidal efficacy against CYPES (Cyperus serotinus; 80 g/ha): 100
Herbicidal efficacy against CYPES (Cyperus serotinus; 320 g/ha): 100
herbicidal activity CYPES (Cyperus serotinus): 100%
Herbicidal efficacy against SETVI (Setaria viridis [7]; 20 g/ha): 40
herbicidal activity SETVI (Setaria viridis [7]; 80 g/ha): 100%
Herbicidal activity PHBPU (Pharbitis purpureum): 100%
Herbicidal efficacy against POLCO (Polygonum convolvulus; dosage 80 g/ha): 40
Herbicidal efficacy against POLCO (Polygonum convolvulus; dosage 320 g/ha): 70
Herbicidal efficacy against VIOTR (Viola tricolor [8]; dosage 80 g/ha): 100
Herbicidal efficacy against VIOTR (Viola tricolor [8]; dosage 320 g/ha): 100
herbicidal activity VIOTR (Viola tricolor [8]; dosage 320 g/ha): 100%
herbicidal activity AMARE (Amaranthus retroflexus [9]): 100%
Herbicidal efficacy against AVEFA (Avena fatua [10]; 20 g/ha): 50
herbicidal activity AVEFA (Avena fatua [10]; 80 g/ha): 90%
Herbicidal efficacy against AVEFA (Avena fatua [11]; 80 g/ha): 30
Herbicidal efficacy against AVEFA (Avena fatua [11]; 320 g/ha): 80
herbicidal activity AVEFA (Avena fatua [11]): 80%
Herbicidal efficacy against SETVI (Setaria viridis [12]; 80 g/ha): 90
Herbicidal efficacy against SETVI (Setaria viridis [12]; 320 g/ha): 100
herbicidal activity SETVI (Setaria viridis [12]): 100%
Herbicidal efficacy against ECHCG (ECHCG [13]; 80 g/ha): 100
Herbicidal efficacy against ECHCG (ECHCG [13]; 320 g/ha): 100
Herbicidal efficacy against ALOMY (Alopecurus myosuroides [14]; 20 g/ha): 30
herbicidal activity AMARE (Amaranthus retroflexus [15]): 100%
Herbicidal efficacy against ALOMY (Alopecurus myosuroides [16]; 80 g/ha): 60
Herbicidal efficacy against ALOMY (Alopecurus myosuroides [16]; 320 g/ha): 90
herbicidal activity ALOMY (Alopecurus myosuroides [16]): 90%

Cc1c(C(=O)Nc2nnnn2C)ccc(C(F)F)c1S(C)(=O)=O [Example 1-3]
herbicidal activity ABUTH (Abutilon theophrasti [1]): 80%
Herbicidal efficacy against MATIN (Matricaria inodora; dosage 20 g/ha): 80
Herbicidal efficacy against MATIN (Matricaria inodora; dosage 80 g/ha): 100
Herbicidal efficacy against MATIN (Matricaria inodora; dosage 320 g/ha): 100
herbicidal activity MATIN (Matricaria inodora; dosage 320 g/ha): 100%
Herbicidal efficacy against STEME (Stellaria media [2]; 5 g/ha): 90
Herbicidal efficacy against STEME (Stellaria media [2]; 80 g/ha): 100
Herbicidal activity STEME (Stellaria media [2]; 80 g/ha): 100%
Herbicidal efficacy against VIOTR (Viola tricolor [3]; 5 g/ha): 100
Herbicidal efficacy against VIOTR (Viola tricolor [3]; 80 g/ha): 100
herbicidal activity VIOTR (Viola tricolor [3]; 80 g/ha): 100%
Herbicidal activity ECHCG (ECHCG [4]): 90%
Herbicidal efficacy against ABUTH (Abutilon theophrasti [5]; dosage 20 g/ha): 100
Herbicidal efficacy against ABUTH (Abutilon theophrasti [5]; dosage 80 g/ha): 100
Herbicidal efficacy against ABUTH (Abutilon theophrasti [5]; dosage 320 g/ha): 100
herbicidal activity ABUTH (Abutilon theophrasti [5]; dosage 320 g/ha): 100%
Herbicidal activity STEME (Stellaria media [6]): 100%
Herbicidal efficacy against CYPES (Cyperus serotinus; 20 g/ha): 30
Herbicidal efficacy against CYPES (Cyperus serotinus; 80 g/ha): 90
Herbicidal efficacy against CYPES (Cyperus serotinus; 320 g/ha): 90
herbicidal activity CYPES (Cyperus serotinus): 90%
Herbicidal efficacy against SETVI (Setaria viridis [7]; 5 g/ha): 90
Herbicidal efficacy against SETVI (Setaria viridis [7]; 80 g/ha): 90
herbicidal activity SETVI (Setaria viridis [7]; 80 g/ha): 90%
Herbicidal activity PHBPU (Pharbitis purpureum): 100%
Herbicidal efficacy against POLCO (Polygonum convolvulus; dosage 20 g/ha): 30
Herbicidal efficacy against POLCO (Polygonum convolvulus; dosage 80 g/ha): 90
Herbicidal efficacy against POLCO (Polygonum convolvulus; dosage 320 g/ha): 90
Herbicidal efficacy against VIOTR (Viola tricolor [8]; dosage 20 g/ha): 100
Herbicidal efficacy against VIOTR (Viola tricolor [8]; dosage 80 g/ha): 100
Herbicidal efficacy against VIOTR (Viola tricolor [8]; dosage 320 g/ha): 100
herbicidal activity VIOTR (Viola tricolor [8]; dosage 320 g/ha): 100%
herbicidal activity AMARE (Amaranthus retroflexus [9]): 100%
Herbicidal efficacy against AVEFA (Avena fatua [10]; 5 g/ha): 70
Herbicidal efficacy against AVEFA (Avena fatua [10]; 80 g/ha): 100
herbicidal activity AVEFA (Avena fatua [10]; 80 g/ha): 100%
Herbicidal efficacy against AVEFA (Avena fatua [11]; 20 g/ha): 80
Herbicidal efficacy against AVEFA (Avena fatua [11]; 80 g/ha): 100
Herbicidal efficacy against AVEFA (Avena fatua [11]; 320 g/ha): 100
herbicidal activity AVEFA (Avena fatua [11]): 100%
Herbicidal efficacy against SETVI (Setaria viridis [12]; 20 g/ha): 70
Herbicidal efficacy against SETVI (Setaria viridis [12]; 80 g/ha): 100
Herbicidal efficacy against SETVI (Setaria viridis [12]; 320 g/ha): 100
herbicidal activity SETVI (Setaria viridis [12]): 100%
Herbicidal efficacy against ECHCG (ECHCG [13]; 20 g/ha): 90
Herbicidal efficacy against ECHCG (ECHCG [13]; 80 g/ha): 100
Herbicidal efficacy against ECHCG (ECHCG [13]; 320 g/ha): 100
Herbicidal efficacy against ALOMY (Alopecurus myosuroides [14]; 5 g/ha): 60
Herbicidal efficacy against ALOMY (Alopecurus myosuroides [14]; 80 g/ha): 90
herbicidal activity ALOMY (Alopecurus myosuroides [14]; 80 g/ha, Table C): 90%
Herbicidal efficacy against ALOMY (Alopecurus myosuroides [16]; 20 g/ha): 50
Herbicidal efficacy against ALOMY (Alopecurus myosuroides [16]; 80 g/ha): 90
Herbicidal efficacy against ALOMY (Alopecurus myosuroides [16]; 320 g/ha): 100
herbicidal activity ALOMY (Alopecurus myosuroides [16]): 100%
